Source: US8304448B2, “Method for the treatment of metabolic disorder containing benzazole derivatives as an active ingredient” (Korea Research Institute of Bioscience and Biotechnology, priority 2006, dated 2012)

Columns and labels:
DGAT = assay: Assay for inhibitory activity against DGAT ([14C]triacylglycerol formation, rat microsomal protein); assay type: biochemical; conditions: rat microsomal protein as enzyme source
Text: The derivatives of Chemical Formula 1 in accordance with the present invention are found to inhibit the enzymatic activity of DGAT at a dose-dependent manner (refer to Table 2 and FIG. 1) as measured in a test in which [^14C]triacylglycerol was quantitatively analyzed after enzymatic reaction between 1,2-diacylglycerol and [^14C]palmitoyl-CoA, with microsomal proteins from rats serving as an enzyme source (refer to Example 1).
After enzymatic reaction between two substrates 1,2-diacylglycerol (Sigma, D0138) and [^14C]palmitoyl-CoA (Amersham, CFA583) with the microsomal protein of rat serving as an enzyme source in accordance with Coleman et al, Methods Enzymol., 98-103, 1992, the resulting product [^14C] triacylglycerol was measured for radioactivity. In detail, to a reaction buffer (175 mM Tris-HCl, pH 8.0, 20 μl bovine serum albumin (10 mg/ml), 100 mM MgCl2, 30 μM [^14C] palmitoyl-CoA (0.02 μCi, Amersham) and 200 μM 1,2-dioleoyl glycerol) was added 10 μl of a solution of the samples in dimethylsulfoxide (DMSO) and then 100˜200 μl of an isolated microsomal protein, followed by reaction at 25° C. for 10 min. The reaction was terminated with 1.5 ml of a mixture of 80:20:2 2-propanol:heptane:water (v:v:v). Thereafter, the [^14C] triacylglycerol thus formed was separated. In this regard, 1 ml of heptane and 0.5 ml of distilled water were added to the reaction mixture, which was then shaken. 1 ml of the supernatant thus formed was mixed with 2 ml of an alkaline ethanol solution (ethanol:0.5 N sodium hydroxide:water=50:10:40, v:v:v), followed by shaking. After being taken, 0.65 ml of the supernatant thus formed was measured for radioactivity using an LSC (liquid scintillation counter). The inhibitory activity against DGAT was calculated according to the following Mathematical Formula 1. The inhibitory effects of the benzazole derivatives on DGAT are summarized in Table 2, below while % DGAT inhibition is plotted against doses of compound 22 and 31 in FIG. 1.
T: Cpm of a test group in which a sample was added to an enzymatic buffer,
C: Cpm of a control in which no samples were added to an enzymatic buffer,
B: Cpm of a control in which a sample was added in the absence of any enzyme source.

[1] = test system: ICR mice fed a high-fat diet; assay: In vivo assay for anti-obesity activity in mice fed a high-fat diet; parameters: species or system mouse; conditions: high-fat diet
Method: Also, the derivatives of Chemical Formula 1 were tested for resistance to obesity by iterative oral administration at a dose of 10 mg/kg into ICR male mice (refer to Example 3). […] When they were administered, the levels of total triglycerides, total cholesterols, and low density lipoprotein (LDL)-cholesterol in the blood recovered to almost normal levels, with a significant increase observed in the level of high density lipoprotein (HDL)-cholesterol in the blood (refer to Tables 6 and 7 and FIGS. 3 and 4).
In order to verify the anti-obesity activity of the benzaldehyde derivatives of Chemical Formula 1 in accordance with the present invention, Compounds 22 and 31 were administered repetitively into rodents as follows.
The experimental animals were 6 week old ICR mice which were purchased from Japan SLC, Inc. via Central Lab. Animal Inc. Korea. They were acclimated to a new environment for one week before use, and fed with a foodstuff commercially available from Deyts, U.S.A. They were bred in an animal lab set at a temperature of 23±3° C. and RH 50±10% under light of 150˜300 Lux for a period of 12 hours (6 a.m.˜6 p.m.) with ventilation 10-20 times/hour. All of the 12 mice used were male, and were organized into two groups of 6. The test group was orally administered once a day at 4 p.m. with 10 mg/kg of the compound (Chemical Formula 1) in the form of a solution in biological saline for 35 days while the control was administered with biological saline only. Xenical, a commercially available lipase inhibitor, was administered orally at a dose of 10 mg/kg once a day as a positive control drug.
The animals were measured for body weight every week and sacrificed on Day 35, after which blood from the heart was sampled. Abdominal fat, epididymal fat, retroperitoneal fat and the liver were excised and weighed. Blood samples were assayed for total triglyceride, total cholesterol, HDL-cholesterol and LDL-cholesterol using respective test kits, all commercially available from Asan Pharmaceutical Co. Ltd., Korea.
For evidence of anti-obesity activity, compounds 22 and 31 were orally administered at regular intervals at a dose of 10 mg/kg into ICR male mice for a predetermined period of time with the concurrent provision of conditional diets thereto. Anatomized abdomens of the animals are given in the photographs of FIG. 2.

[2] = Day 35, 10 mg/kg oral, Mean ± SD
[3] = blood, Day 35, 10 mg/kg oral, Mean ± SD

Row | SMILES | DGAT (% inhibition in 25 μM) (DGAT) [%] | also measured
1 | CN(C)C(=O)c1ccc2oc(COc3ccc(C45CC6CC(CC(C6)C4)C5)cc3)nc2c1 [compound 21, 2-(4-adamantan-1-yl-phenoxymethyl)-benzoxazole-5-carboxylic acid dimethylamide] | 10.49 | –
2 | O=C(NCc1ccco1)c1ccc2nc(COc3ccc(C45CC6CC(CC(C6)C4)C5)cc3)oc2c1 [compound 27] | 13.26 | –
3 | COC(=O)c1ccc2[nH]c(COc3ccc(Cl)cc3Cl)nc2c1 [compound 6, 2-(2,4-dichloro-phenoxymethyl)-1H-benzoimidazole-5-carboxylic acid methyl ester] | 0.63 | –
4 | NNC(=O)c1ccc2[nH]c(COc3ccc(Cl)cc3Cl)nc2c1 [compound 34, 2-(2,4-dichloro-phenoxymethyl)-1H-benzoimidazole-5-carboxylic acid hydrazide] | 6.74 | –
5 | COC(=O)c1ccc2nc(COc3ccc(Cl)cc3Cl)oc2c1 [compound 5, 2-(2,4-dichloro-phenoxymethyl)-benzoxazole-6-carboxylic acid methyl ester] | 1.98 | –
6 | O=C(NCc1ccco1)c1ccc2nc(COc3ccc(Cl)cc3Cl)[nH]c2c1 [compound 35, 2-(2,4-dichloro-phenoxymethyl)-3H-benzoimidazole-5-carboxylic acid (furan-2-ylmethyl)-amide] | 28.63 | –
7 | CC(C)(C)c1ccc(OCc2nc3cc(C(=O)O)ccc3[nH]2)cc1 [compound 18, 2-(4-tert-butyl-phenoxymethyl)-1H-benzoimidazole-5-carboxylic acid] | −13.05 | –
8 | CN(C)CCNC(=O)c1ccc2oc(COc3ccc(C45CC6CC(CC(C6)C4)C5)cc3)nc2c1 [compound 23, 2-(4-adamantan-1-yl-phenoxymethyl)-benzoxazole-5-carboxylic acid (2-dimethylamino-ethyl)-amide] | 8.59 | –
9 | CN(C)CCNC(=O)c1ccc2[nH]c(COc3ccc(C45CC6CC(CC(C6)C4)C5)cc3)nc2c1 [compound 32, 2-(4-adamantan-1-yl-phenoxymethyl)-1H-benzoimidazole-5-carboxylic acid (2-dimethylamino-ethyl)-amide] | −3.08 | –
10 | O=C(O)c1ccc2nc(COc3ccc(Cl)cc3Cl)oc2c1 [compound 15, 2-(2,4-dichloro-phenoxymethyl)-benzoxazole-6-carboxylic acid] | −13.03 | –
11 | COC(=O)c1ccc2oc(COc3ccc(C45CC6CC(CC(C6)C4)C5)cc3)nc2c1 [Cpd. 2, 2-(4-adamantan-1-yl-phenoxymethyl)-benzoxazole-5-carboxylic acid methyl ester] | −25.72 | –
12 | COC(=O)c1ccc2nc(COc3ccc(C(C)(C)C)cc3C(C)(C)C)oc2c1 [compound 7, 2-(2,4-tert-butyl-phenoxymethyl)-benzoxazole-6-carboxylic acid methyl ester] | 34.5 | –
13 | COC(=O)c1ccc2oc(COc3ccc(Cl)cc3Cl)nc2c1 [Cpd. 1, 2-(2,4-dichloro-phenoxymethyl)-benzoxazole-5-carboxylic acid methyl ester] | −2.64 | –
14 | O=C(NCCCn1ccnc1)c1ccc2[nH]c(COc3ccc(C45CC6CC(CC(C6)C4)C5)cc3)nc2c1 [compound 33, 2-(4-adamantan-1-yl-phenoxymethyl)-1H-benzoimidazole-5-carboxylic acid (3-imidazol-1-yl-propyl)-amide] | 16.99 | –
15 | CC(C)(C)c1ccc(OCc2nc3ccc(C(=O)O)cc3o2)cc1 [compound 17, 2-(4-tert-butyl-phenoxymethyl)-benzoxazole-6-carboxylic acid] | −29.81 | –
16 | O=C(O)c1ccc2[nH]c(COc3ccc(C45CC6CC(CC(C6)C4)C5)cc3)nc2c1 [compound 14, 2-(4-adamantan-1-yl-phenoxymethyl)-1H-benzoimidazole-5-carboxylic acid] | −13.17 | –
17 | O=C(O)c1ccc2oc(COc3ccc(C45CC6CC(CC(C6)C4)C5)cc3)nc2c1 [compound 12, 2-(4-adamantan-1-yl-phenoxymethyl)-benzoxazole-5-carboxylic acid] | −10.43 | –
18 | O=C(O)c1ccc2oc(COc3ccc(Cl)cc3Cl)nc2c1 [compound 11, 2-(2,4-dichloro-phenoxymethyl)-benzoxazole-5-carboxylic acid] | −16.48 | –
19 | NC(=O)c1ccc2nc(COc3ccc(C45CC6CC(CC(C6)C4)C5)cc3)[nH]c2c1 [compound 29, 2-(4-adamantan-1-yl-phenoxymethyl)-3H-benzoimidazole-5-carboxylic acid amide] | −13.38 | DGAT (% inhibition in 5 μM) (DGAT): −1.8%
20 | CCCCCCCCCCC[C@@H](C[C@@H]1OC(=O)[C@H]1CCCCCC)OC(=O)[C@H](CC(C)C)NC=O [Xenical, reference compound] | – | (Tissue Weight/Body Weight) × 100 Abdominal Fat + Epididymal Fat [1, 2]: 2.45 ± 1.03; (Tissue Weight/Body Weight) × 100 Liver [1, 2]: 4.31 ± 0.76; (Tissue Weight/Body Weight) × 100 Retroperitoneal Fat [1, 2]: 0.75 ± 0.50; (Tissue Weight/Body Weight) × 100 Total Fat [1, 2]: 3.20 ± 1.52; HDL-Cholesterol [1, 3]: 30.28 ± 1.52 mg/dL; LDL-Cholesterol [1, 3]: 20.45 ± 8.99 mg/dL; Total Cholesterol [1, 3]: 53.75 ± 12.35 mg/dL; Total Triglyceride [1, 3]: 40.77 ± 6.06 mg/dL; inhibition of body weight gain ([1]; 10 mg/kg oral once a day for 35 days): 88%; Body Weight (g) (Mean ± SD) Week 0 ([1]; 10 mg/kg oral once a day, Week 0): 26.30 ± 1.45 g; Body Weight (g) (Mean ± SD) Week 1 ([1]; 10 mg/kg oral once a day, Week 1): 33.63 ± 1.28 g; Body Weight (g) (Mean ± SD) Week 2 ([1]; 10 mg/kg oral once a day, Week 2): 37.41 ± 2.02 g; Body Weight (g) (Mean ± SD) Week 3 ([1]; 10 mg/kg oral once a day, Week 3): 39.11 ± 0.90 g; Body Weight (g) (Mean ± SD) Week 4 ([1]; 10 mg/kg oral once a day, Week 4): 39.95 ± 1.26 g; Body Weight (g) (Mean ± SD) Week 5 ([1]; 10 mg/kg oral once a day, Week 5): 41.24 ± 1.60 g
21 | O=C(O)c1ccc2[nH]c(COc3ccc([N+](=O)[O-])cc3)nc2c1 [compound 19, 2-(4-nitro-phenoxymethyl)-1H-benzoimidazole-5-carboxylic acid] | −5.86 | DGAT (% inhibition in 5 μM) (DGAT): 2.0%
22 | O=C(NCc1ccco1)c1ccc2nc(COc3ccc(Cl)cc3Cl)oc2c1 [compound 28, 2-(2,4-dichloro-phenoxymethyl)-benzoxazole-6-carboxylic acid (furan-2-ylmethyl)-amide] | −8.07 | –
23 | O=C(O)c1ccc2nc(COc3ccc(C45CC6CC(CC(C6)C4)C5)cc3)oc2c1 [compound 13, 2-(4-adamantan-1-yl-phenoxymethyl)-benzoxazole-6-carboxylic acid] | −18.53 | –
24 | COC(=O)c1ccc2[nH]c(COc3ccc([N+](=O)[O-])cc3)nc2c1 [compound 9, 2-(4-nitro-phenoxymethyl)-1H-benzoimidazole-5-carboxylic acid methyl ester] | 0.61 | DGAT (% inhibition in 5 μM) (DGAT): −5.6%
25 | COC(=O)c1ccc2nc(COc3ccc(C45CC6CC(CC(C6)C4)C5)cc3)oc2c1 [Cpd. 3, 2-(4-adamantan-1-yl-phenoxymethyl)-benzoxazole-6-carboxylic acid methyl ester] | −5.34 | –
